Where two headings read alike, the source gives them in different places.
Columns and labels:
[1] = target: T1, human DA transporters [(h)DAT] (Homo sapiens, UniProt Q01959); test: Inhibition of [3H]dopamine uptake into HEK293 cells stably expressing hDAT; type: cell-based
T1 construct: expressed in transfected cells; host or cells: HEK-293
Description: Cell Lines and Culture: Human embryonic kidney (HEK-293) cells stably expressing human DAT, NET or SERT were maintained as previously described in Eshleman, A. J.; Carmolli, M.; Cumbay, M.; Martens, C. R.; Neve, K. A.; Janowsky, A., J. Pharmacol. Exp. Ther. 1999, 289, (2), 877-885. Use was made of several human cell lines that naturally or heterologously express specific, functional, human nAChR subtypes. Cells of the TE671/RD line naturally expresses muscle-type nAChR (a1β1γδ- or α1*-nAChR), and SH-SY5Y neuroblastoma cells naturally expresses autonomic α3β4*-nAChRs (containing α3, β4, probably α5, and sometimes β2 subunits). Different clones of SH-EP1 epithelial cell lines have been engineered to heterologously express either α4β2-nAChR, which are thought to be the most abundant, high affinity nicotine-binding nAChR in mammalian brain, or α4β4-nAChR, another possible brain nAChR subtype (SH-EP1-hα4β2 or α4β4 cells, respectively). These cells were maintained as low passage number (1-26 from our frozen stocks) cultures to ensure stable expression of native or heterologously-expressed nAChR as previously described (see Lukas, R. J.; Fryer, J. D.; Eaton, J. B.; L., G. C., Some methods for studies of nicotinic acetylcholine receptor pharmacology, in Nicotinic receptors and the Nervous System, Levine, E. D., Ed. CRC Press: Boca Raton, 2002; pp 3-27, incorporated herein by reference in its entirety). Cells were passaged once weekly by splitting just-confluent cultures 1/300 (TE671/RD), 1/5 (SH-SY5Y), or 1/20 (transfected SH-EP1) in serum-supplemented medium to maintain log-phase growth.
See, for example, Damaj, M. I.; Carroll, F. I.; Eaton, J. B.; Navarro, H. A.; Blough, B. E.; Mirza, S.; Lukas, R. J.; Martin, B. R., Mol. Pharmacol. 2004, 66, (3), 675-682 and Eshleman, A. J.; Carmolli, M.; Cumbay, M.; Martens, C. R.; Neve, K. A.; Janowsky, A., J. Pharmacol. Exp. Ther. 1999, 289, (2), 877-885, both incorporated by reference herein in their entireties.

[2] = tested on: Male Institute of Cancer Research (ICR) mice; test: Hot-plate test, blockade of nicotine-induced antinociception; type: in vivo; details: pretreatment 15 min before nicotine 2.5 mg/kg s.c., tested 5 min after nicotine; for ED50: Mus musculus, read-out: AD50 Hot-plate
Description: (§1) Animals: Male Institute of Cancer Research (ICR) mice (weighing 20-25 g) obtained from Harlan (Indianapolis, Ind.) were used throughout the study. Animals were housed in an Association for Assessment and Accreditation of Laboratory Animal Care-approved facility, were placed in groups of six, and had free access to food and water. Studies were approved by the Institutional Animal Care and Use Committee of Virginia Commonwealth University.
Hot-Plate Test: Mice were placed into a 10-cm wide glass cylinder on a hot plate (Thermojust Apparatus) maintained at 55° C. for assessment of pain responses mediated at supraspinal levels. To minimize tissue damage, a maximum exposure to the hot plate 40 s was imposed. Measures of control latencies (time until the animal jumped or licked its paws; typically 8-12 s) were done twice for stimuli applied at least 10 min apart for each mouse. Antinociceptive responses after test drug administrations were determined and calculated as the % MPE, where % MPE=[(test latency in s−control latency in s)/(40 s−control latency in s)×100]. Groups of 8 to 12 animals were used for each drug condition. […] The animals were then tested 5 min after administration of a subcutaneous dose of 2.5 mg/kg nicotine.

[3] = tested on: Male Institute of Cancer Research (ICR) mice; test: Tail-flick test, blockade of nicotine-induced antinociception; type: in vivo; details: for ED50: Mus musculus, 5 min, read-out: AD50 Tail-flick; for ED50 / AD50 Tail-flick: mice, pretreatment 15 min before nicotine 2.5 mg/kg s.c., tested 5 min after nicotine; for activity in the tail-flick assay relative to (2S,3S)-4a: higher activity than (2S,3S)-4a
Description: as §1
Tail-Flick Test: Antinociception for pain mediated at the spinal level was assessed by the tail-flick method of D'Amour, F. E.; Smith, D. L., J. Pharmacol. Exp. Ther. 1941, 72, 74-79, incorporated herein by reference in its entirety. In brief, mice were lightly restrained while a radiant heat source was shone onto the upper portion of the tail. To minimize tissue damage, a maximum latency of 10 s was imposed. Latency to remove the tail from the heat source was recorded for each animal. […] Antinociceptive response was calculated as the percentage of maximum possible effect (% MPE), where % MPE=[(test control)/(10 control)]×100.

[4] = tested on: Male Institute of Cancer Research (ICR) mice; test: Body temperature, antagonism of nicotine-induced hypothermia; type: in vivo; details: pretreatment 15 min before nicotine 2.5 mg/kg s.c., tested 30 min after nicotine; for ED50: Mus musculus, 0.5 h, read-out: AD50 Hypothermia
Procedure: as §1
Body Temperature: Rectal temperature was measured by a thermistor probe (inserted 24 mm) and digital thermometer (YSI Inc., Yellow Springs, Ohio). Readings were taken just before and 30 min after subcutaneous injection of either saline or 2.5 mg/kg nicotine. The difference in rectal temperature before and after treatment was calculated for each mouse. The ambient temperature of the laboratory varied from 21 to 24° C. from day to day. […] The animals were then tested 30 min after administration of a subcutaneous dose of 2.5 mg/kg nicotine.

[5] = HEK293-hDAT, mean ± standard error of three independent experiments, read-out: monoamine uptake inhibition IC50 [3H]DA

T1 sequence (Q01959 whole entry): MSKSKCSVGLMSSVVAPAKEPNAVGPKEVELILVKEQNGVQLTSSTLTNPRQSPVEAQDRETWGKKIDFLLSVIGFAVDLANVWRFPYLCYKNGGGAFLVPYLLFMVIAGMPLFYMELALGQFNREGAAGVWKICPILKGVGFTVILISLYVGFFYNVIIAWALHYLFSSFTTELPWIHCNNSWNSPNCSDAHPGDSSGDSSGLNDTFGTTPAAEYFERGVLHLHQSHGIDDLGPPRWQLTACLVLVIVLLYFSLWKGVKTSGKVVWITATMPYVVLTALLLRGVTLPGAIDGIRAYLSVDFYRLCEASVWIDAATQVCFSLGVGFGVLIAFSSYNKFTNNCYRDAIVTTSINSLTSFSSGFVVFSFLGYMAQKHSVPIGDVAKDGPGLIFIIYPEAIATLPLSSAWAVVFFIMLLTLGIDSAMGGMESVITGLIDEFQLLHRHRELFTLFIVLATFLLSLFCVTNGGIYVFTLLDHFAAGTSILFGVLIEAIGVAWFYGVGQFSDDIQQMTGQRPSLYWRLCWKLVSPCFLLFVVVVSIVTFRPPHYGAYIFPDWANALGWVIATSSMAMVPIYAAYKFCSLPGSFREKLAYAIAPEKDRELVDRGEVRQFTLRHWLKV

Row | SMILES | IC50 [1] | selectivity for inhibition of DA uptake over α4β2-nAChR [1] | AD50 Hot-plate [2] | ED50 [3] | AD50 Hypothermia [4] | IC50 [1, 5] | AD50 Tail-flick [3] | ED50 [4] | ED50 [2] | activity in the tail-flick assay relative to (2S,3S)-4a [3]
1 | CC1NC(C)(C)COC1(O)c1ccc(Cl)c(Cl)c1 (racemic) [Compound 4n, 2-(3,4-Dichlorophenyl)-3,5,5-trimethylmorpholin-2-ol] | 0.07 µM | > 285 fold | IA (IA: AD50 > 15 mg/kg) | 8.8 mg/kg | IA (IA: AD50 > 15 mg/kg) | – | – | – | – | –
2 | CC1NC(C)(C)COC1(O)c1cc(Cl)cc(Cl)c1 (racemic) [Compound 4p, 2-(3,5-Dichlorophenyl)-3,5,5-trimethylmorpholin-2-ol] | – | – | IA (IA: AD50 > 15 mg/kg) | – | IA (IA: AD50 > 15 mg/kg) | 8.25 ± 0.72 µM | IA (IA: AD50 > 15 mg/kg) | – | – | –
3 | C[C@@H]1NC(C)(C)CO[C@@]1(O)c1ccccc1 [Compound 4b, (2S,3S)-2-Phenyl-3,5,5-trimethylmorpholin-2-ol] | – | – | IA (IA: AD50 > 15 mg/kg) | – | IA (IA: AD50 > 15 mg/kg) | 1.06 ± 0.03 µM | IA (IA: AD50 > 15 mg/kg) | – | – | –
4 | C[C@@H]1NC(C)(C)CO[C@@]1(O)c1cccc(F)c1 [Compound 4c, (2S,3S)-2-(3-Fluorophenyl)-3,5,5-trimethylmorpholin-2-ol] | – | – | – | 0.012 to 0.013 mg/kg | – | 1.38 ± 0.36 µM | – | 2.3 to 7 mg/kg | – | –
5 | C[C@@H]1NC(C)(C)CO[C@@]1(O)c1cccc(Br)c1 [Compound 4d, (2S,3S)-2-(3-Bromophenyl)-3,5,5-trimethylmorpholin-2-ol] | – | – | – | 0.16 mg/kg | – | 3.34 ± 0.68 µM | – | 1.7 mg/kg | 3.7 to 8.6 mg/kg | –
6 | Cc1cccc([C@]2(O)OCC(C)(C)N[C@H]2C)c1 [Compound 4e, (2S,3S)-2-(m-Tolyl)-3,5,5-trimethylmorpholin-2-ol] | – | – | – | 0.054 mg/kg | – | 2.6 ± 0.4 µM | – | 2.3 to 7 mg/kg | – | –
7 | COc1cccc([C@]2(O)OCC(C)(C)N[C@H]2C)c1 [Compound 4f, (2S,3S)-2-(3-Methoxyphenyl)-3,5,5-trimethylmorpholin-2-ol] | – | – | IA (IA: AD50 > 15 mg/kg) | 5.85 mg/kg | IA (IA: AD50 > 15 mg/kg) | 16 µM | – | – | – | –
8 | C[C@@H]1NC(C)(C)CO[C@@]1(O)c1cccc([N+](=O)[O-])c1 [Compound 4g, (2S,3S)-2-(3-Nitrophenyl)-3,5,5-trimethylmorpholin-2-ol] | – | – | IA (IA: AD50 > 15 mg/kg) | 4.9 mg/kg | – | 12 µM | – | – | – | –
9 | C[C@@H]1NC(C)(C)CO[C@@]1(O)c1ccc(F)cc1 [Compound 4h, (2S,3S)-2-(4-Fluorophenyl)-3,5,5-trimethylmorpholin-2-ol] | – | – | IA (IA: AD50 > 15 mg/kg) | 0.012 to 0.013 mg/kg | – | 4.2 ± 0.7 µM | – | – | – | –
10 | C[C@@H]1NC(C)(C)CO[C@@]1(O)c1ccc(Cl)cc1 [Compound 4i, (2S,3S)-2-(4-Chlorophenyl)-3,5,5-trimethylmorpholin-2-ol] | – | – | IA (IA: AD50 > 15 mg/kg) | 0.019 mg/kg | IA (IA: AD50 > 15 mg/kg) | 0.285 µM | – | – | – | –
11 | Cc1ccc([C@]2(O)OCC(C)(C)N[C@H]2C)cc1 [Compound 4j, (2S,3S)-3,5,5-Trimethyl-2-(4-methylphenyl)morpholin-2-ol] | – | – | IA (IA: AD50 > 15 mg/kg) | 0.004 mg/kg | IA (IA: AD50 > 15 mg/kg) | 0.832 ± 0.26 µM | – | – | – | –
12 | COc1ccc([C@]2(O)OCC(C)(C)N[C@H]2C)cc1 [Compound 4k, (2S,3S)-2-(4-Methoxyphenyl)-3,5,5-trimethylmorpholin-2-ol] | – | – | IA (IA: AD50 > 15 mg/kg) | 0.019 mg/kg | IA (IA: AD50 > 15 mg/kg) | > 10 µM | – | – | – | –
13 | C[C@@H]1NC(C)(C)CO[C@@]1(O)c1ccc(-c2ccccc2)cc1 [Compound 4l, (2S,3S)-2-Biphenyl-4-yl-3,5,5-trimethylmorpholin-2-ol] | > 10 µM | – | IA (IA: AD50 > 15 mg/kg) | 0.021 mg/kg | IA (IA: AD50 > 15 mg/kg) | – | – | – | – | –
14 | C[C@@H]1NC(C)(C)CO[C@@]1(O)c1ccc(F)c(F)c1 [Compound 4m, (2S,3S)-2-(3,4-Difluorophenyl)-3,5,5-trimethylmorpholin-2-ol] | – | – | IA (IA: AD50 > 15 mg/kg) | 0.006 mg/kg | IA (IA: AD50 > 15 mg/kg) | 2.14 ± 0.18 µM | – | – | – | –
15 | C[C@@H]1NC(C)(C)CO[C@@]1(O)c1cc(F)cc(F)c1 [Compound 4o, (2S,3S)-2-(3,5-Difluorophenyl)-3,5,5-trimethylmorpholin-2-ol] | – | – | IA (IA: AD50 > 15 mg/kg) | 0.0056 mg/kg | IA (IA: AD50 > 15 mg/kg) | 1.02 ± 0.19 µM | ~0.006 mg/kg | – | – | –
16 | C[C@@H]1NC(C)(C)CO[C@@]1(O)c1cccc2ccccc12 [Compound 4q, (2S,3S)-2-(Naphthalen-1-yl)-3,5,5-trimethylmorpholin-2-ol] | – | – | IA (IA: AD50 > 15 mg/kg) | 0.034 mg/kg | IA (IA: AD50 > 15 mg/kg) | 10 µM | – | – | – | ~5 fold
17 | C[C@@H]1NC(C)(C)CO[C@@]1(O)c1ccc2ccccc2c1 [Compound 4r, (2S,3S)-2-(Naphthalen-2-yl)-3,5,5-trimethylmorpholin-2-ol] | – | – | IA (IA: AD50 > 15 mg/kg) | 0.04 mg/kg | IA (IA: AD50 > 15 mg/kg) | 0.453 µM | – | – | – | ~5 fold
18 | CC[C@@H]1NC(C)(C)CO[C@@]1(O)c1cccc(Cl)c1 [Compound 4s, (2S,3S)-2-(3-Chlorophenyl)-3-ethyl-5,5-dimethylmorpholin-2-ol] | – | – | – | 0.004 mg/kg | – | 0.204 ± 0.023 µM | – | – | 3.7 to 8.6 mg/kg | –
19 | C[C@@H]1N(C)C(C)(C)CO[C@@]1(O)c1cccc(Cl)c1 [Compound 4u, (2S,3S)-2-(3-Chlorophenyl)-3,4,5,5-tetramethylmorpholin-2-ol] | – | – | IA (IA: AD50 > 15 mg/kg) | 0.016 mg/kg | IA (IA: AD50 > 15 mg/kg) | 3.4 ± 0.6 µM | – | – | – | –
20 | C[C@@H]1N(C)C(C)(C)CO[C@@]1(O)c1ccc(Cl)cc1 [Compound 4v, (2S,3S)-2-(4-Chlorophenyl)-3,4,5,5-tetramethylmorpholin-2-ol] | – | – | IA (IA: AD50 > 15 mg/kg) | 0.32 mg/kg | IA (IA: AD50 > 15 mg/kg) | 2.87 ± 0.82 µM | – | – | – | –

Reference: patent US8906908B2, “Hydroxybupropion analogues for treating drug dependence” (priority 2010, dated 2014)
